Experiment [1] relates to CD1 male mice. Description: Oral glucose tolerance test (mouse model of hyperglycemia / type II diabetes). In kind it is in vivo. Conditions: for Effect on blood glucose levels (in words): mouse model of hyperglycemia, high glucose load. The source says: Type II diabetes is characterized by high blood glucose levels in the presence of normal amounts of insulin. Animal models of type II diabetes involve administering high levels of glucose and measuring blood glucose levels and the ability of the experimental animal to maintain glucose homeostasis over time. Several pharmacological structural classes can effectively regulate this hyperglycemic response including sulfonylureas, thiazoladinediones (PPARγ agonists; glitazones) or metformin (glucophage). These drug classes are also clinically approved for use in humans. In one present study, a mouse model of hyperglycemia has been established by administering high levels of glucose to mice.
CD1 male mice (Harlan, Indianapolis, Ind.) of between 8 and 10 weeks of age were fasted 18 hours prior to the start of the study. All blood glucose levels were measured using an Accu-Check Aviva glucose monitors with Aviva glucose test strips from a blood drop derived from the mouse tail. Prior to any treatment, baseline levels of blood glucose were measured in fasted mice. Thirty minutes after baseline measurement, Compound 101 or vehicle was administered via intravenous administration. Thirty minutes after compound administration, animals were administered an oral solution (via gavage) of glucose in distilled water. The dose of glucose was 1.5 g/Kg of body weight. Blood glucose levels were measured 15, 30, 60, 90 and 120 minutes after glucose challenge. There were 6 mice per treatment group.
Blood glucose levels were taken from treated and untreated groups at the times above and measured for concentration of glucose in milligram per deciliter of blood of sample. Average values were calculated for each time point from each group and summarized after performing statistical analysis in Table III below:
After plotting the concentration of blood glucose level over time of treated verses non-treated groups, the area under each curve was calculated to determine the glucose exposure of the treated groups of mice over time. A Student's t test with a p value of <0.001 was performed to generate a standard deviation for the average calculated glucose exposure of the group treated with Compound 101 as compared to the group treated with vehicle alone.

The subject of experiment [2] is CD1 male mice. Described as above. The class given is in vivo. As to conditions: area under blood glucose vs time curve; 7 mg/kg intravenous; oral glucose 1.5 g/Kg; p < 0.01 vs vehicle.

“Also recorded” adds a separate entry of the source.

Regarding `Cc1cccc(Oc2c[nH]c(=O)[nH]c2=O)c1` [Compound 101, 5-(m-tolyloxy)pyrimidine-2,4(1H,3H)-dione], the “Blood glucose levels, AVG ± SEM” value stood at 62.0 ± 13.1 mg/dL in the experiment with CD1 male mice [1] (0 min, baseline in fasted mice before treatment, Compound 101 group (7 mg/kg intravenous given at 30 min)); 119.6 ± 36.0 mg/dL in the experiment with CD1 male mice [1] (75 minutes (15 min after oral glucose 1.5 g/Kg), 7 mg/kg intravenous, 30 min before glucose); 156.4 ± 55.9 mg/dL in the experiment with CD1 male mice [1] (90 minutes (30 min after oral glucose 1.5 g/Kg), 7 mg/kg intravenous, 30 min before glucose); 152.2 ± 33.9 mg/dL in the experiment on CD1 male mice [1] (120 minutes (60 min after oral glucose 1.5 g/Kg), 7 mg/kg intravenous, 30 min before glucose); 107.8 ± 34.1 mg/dL in the experiment with CD1 male mice [1] (150 minutes (90 min after oral glucose 1.5 g/Kg), 7 mg/kg intravenous, 30 min before glucose); 102.6 ± 39.9 mg/dL with CD1 male mice [1] (180 minutes (120 min after oral glucose 1.5 g/Kg), 7 mg/kg intravenous, 30 min before glucose). Also, the “Effect on blood glucose levels (in words)” value with CD1 male mice [1] is listed as “effective in reducing blood glucose levels; also recorded: effectively controls glucose levels in vivo”. Further, in the experiment on CD1 male mice [2], the “Glucose Exposure (Area Under the Curve; AUC), blood glucose levels AUC” value was 8424.7 ± 1922.5 mg·min/dL.

As for `CN(C)C(=N)N=C(N)N` [metformin, reference compound], the “Effect on blood glucose levels (in words)” value with CD1 male mice [1] is on record as “can effectively reduce the blood glucose load”.

These data come from patent US8552184B2, “Compounds and methods for treating disorders related to glucose metabolism” (Melior Pharmaceuticals I, Inc., priority 2008, dated 2013).
